Measured values taken from patent publication US20140179779A1, “Deuterium Substituted Fumarate Derivatives” (Biogen IDEC MA Inc., priority 2012, published 2014).
Structures can show the parent of a compound that is named as a salt.

Columns and labels:
[1] = test system: Nrf2; assay: Nrf2 activation in DLD-1 ARE-luciferase reporter cell line; format: cell-based, Human
Method: (§1) Human cancer cell line DLD-1 and breast cancer cell line MCF7 reporter stable cell lines were generated by transfection with a firefly luciferase reporter construct harboring the luciferase cDNA cloned downstream of eight catenated copies of the antioxidant response element ([…] ID NO.:1). See Wang et al. Cancer Res. 2006; 66:10983-94. To measure Nrf2 activation in the ARE-luciferase reporter cell lines, the cells were plated in 96-well plates at 20-50 k cells/well 24 hours prior to stimulation with the test compounds. […] The reporter cells were harvested 24 hours-48 hours after addition of the compounds and lysed for detection of luciferase activity. Luciferase activity in the lysates was monitored using the Bright-Glo Luciferase Assay System of Promega and Tecan Genios Pro plate reader. Luciferase induction in the compound-treated cells was calculated as fold change over the baseline activity detected in control cultures treated with DMSO-containing media.

[2] = test system: Nrf2; assay: Nrf2 activation in MCF-7 ARE-luciferase reporter cell line; format: cell-based, Human
Method: as §1

[3] = test system: patients with relapsing-remitting MS (RRMS); conditions: compared with placebo after two years of treatment; cited from earlier work
[4] = DLD-1/ARE-E2, 24 hr Stimulation
[5] = DLD-1/ARE-E2, 48 hr Stimulation
[6] = MCF-7/ARE-D3, 24 hr Stimulation
[7] = MCF-7/ARE-D3, 48 hr Stimulation

Structure (SMILES) | Maximum Nrf2 Activation Fold Change [1, 4] [fold] | concentration at maximum fold change (@ [uM]) [1, 4] [µM] | Maximum Nrf2 Activation Fold Change [1, 5] [fold] | concentration at maximum fold change (@ [uM]) [1, 5] [µM] | Maximum Nrf2 Activation Fold Change [2, 6] [fold] | concentration at maximum fold change (@ [uM]) [2, 6] [µM] | Maximum Nrf2 Activation Fold Change [2, 7] [fold] | concentration at maximum fold change (@ [uM]) [2, 7] [µM] | clinical relapses, accumulation of disability progression, and lesion number and volume [3]
O=C(O)/C=C/C(=O)O.[2H]C([2H])([2H])OC(=O)/C=C/C(=O)O [Example 2, (^2H3)methyl fumaric acid ester] | 6 | 1000 | 14 | 1000 | 55 | 1000 | 81 | 1000 | 
COC(=O)/C=C/C(=O)O [MMF, monomethyl fumarate] | 5 | 1000 | 12 | 1000 | 75 | 1000 | 94 | 750 | 
COC(=O)/C=C/C(=O)OC [DMF, dimethyl fumarate] |  |  |  |  |  |  |  |  | significantly reduced
